Measured values published in PubChem BioAssay (NCI).
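Compound exposure: 48 hours, 5 concentrations, 96-well plates. GI50 marks 50% less growth. TGI marks complete inhibition of growth.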

Legend:
Assay in all cases: inhibition of tumour cell growth, NCI panel, 48 h
[1] = system: KM12 colon
[2] = system: BT-549 breast
[3] = system: HOP-92 NSCLC
[4] = system: CAKI-1 renal
[5] = system: MOLT-4 leukemia
[6] = system: OVCAR-3 ovarian
[7] = system: OVCAR-8 ovarian
[8] = system: NCI-H226 lung
[9] = system: A549 NSCLC
[10] = system: NCI-H460 lung
[11] = system: HCT-116 colon
[12] = system: 786-0 renal
[13] = system: SF-295 CNS
[14] = system: SNB-75 CNS
[15] = system: MDA-MB-468 breast
[16] = system: HOP-62 NSCLC
[17] = system: MDA-MB-435
[18] = system: MDA-MB-231 breast
[19] = system: M14 melanoma
[20] = system: SF-268 CNS
[21] = system: OVCAR-5 ovarian
[22] = system: SK-OV-3 ovarian
[23] = system: RXF 393 renal
[24] = system: MALME-3M melanoma
[25] = system: PC-3 prostate
[26] = system: UO-31 renal
[27] = system: NCI/ADR-RES ovarian
[28] = system: SN12C renal
[29] = system: SK-MEL-28 melanoma
[30] = system: NCI-H522 lung
[31] = system: LOX IMVI melanoma
[32] = system: A498 renal
[33] = system: IGROV1 ovarian
[34] = system: SW-620 colon
[35] = system: HT29 colon
[36] = system: TK-10 renal
[37] = system: RPMI-8226 leukemia
[38] = system: MCF7 breast
[39] = system: UACC-257 melanoma
[40] = system: U251 CNS
[41] = system: HCC-2998 colon
[42] = system: SF-539 CNS
[43] = system: SK-MEL-5 melanoma
[44] = system: ACHN renal
[45] = system: OVCAR-4 ovarian
[46] = system: SK-MEL-2 melanoma
[47] = system: T-47D breast
[48] = system: SNB-19 CNS
[49] = system: UACC-62 melanoma
[50] = system: HL-60(TB) leukemia
[51] = system: CCRF-CEM leukemia
[52] = system: NCI-H23 lung
[53] = system: K-562 leukemia
[54] = system: HCT-15 colon
[55] = system: EKVX NSCLC
[56] = system: HS 578T breast
[57] = system: COLO 205 colon
[58] = system: DU-145 prostate
[59] = system: SR leukemia

## Cn1cc(-c2cc(N)n3nc(-c4cn(C)c5ncccc45)cc3n2)c2cccnc21
[1]
  GI50: 16.6 µM
  TGI: 32.3 µM
[2]
  GI50: 17.4 µM
  TGI: 39.1 µM
[3]
  GI50: 11.1 µM
  TGI: 29.1 µM
[4]
  GI50: 16.9 µM
  TGI: 35.6 µM
[5]
  GI50: 17.7 µM
  TGI: 51.6 µM
[6]
  GI50: 15.6 µM
  TGI: 30.9 µM
[7]
  GI50: 18.7 µM
  TGI: 46 µM
[8]
  GI50: 17.8 µM
  TGI: 42.9 µM
[9]
  GI50: 15.7 µM
  TGI: 42 µM
[10]
  GI50: 15.9 µM
  TGI: 32.6 µM
[11]
  GI50: 16.8 µM
  TGI: 38.2 µM
[12]
  GI50: 16.7 µM
  TGI: 32.2 µM
[13]
  GI50: 17.5 µM
  TGI: 38.8 µM
[14]
  GI50: 11.1 µM
  TGI: 30.6 µM
[15]
  GI50: 13.7 µM
  TGI: 26.7 µM
[16]
  GI50: 18 µM
  TGI: 36.4 µM
[17]
  GI50: 29.4 µM
  TGI: > 100 µM
[18]
  GI50: 13.7 µM
  TGI: 26.5 µM
[19]
  GI50: 16 µM
  TGI: 30.9 µM
[20]
  GI50: > 100 µM
  TGI: > 100 µM
[21]
  GI50: 15.1 µM
  TGI: 28.4 µM
[22]
  GI50: > 100 µM
  TGI: > 100 µM
[23]
  GI50: 5.11 µM
  TGI: 21.9 µM
[24]
  GI50: 17.3 µM
  TGI: 36.4 µM
[25]
  GI50: 15.2 µM
  TGI: 34.9 µM
[26]
  GI50: 15.2 µM
  TGI: 32.1 µM
[27]
  GI50: 30.9 µM
  TGI: > 100 µM
[28]
  GI50: 15.2 µM
  TGI: 30.4 µM
[29]
  GI50: 16.4 µM
  TGI: 31.6 µM
[30]
  GI50: 32.1 µM
  TGI: > 100 µM
[31]
  GI50: 18.2 µM
  TGI: 39.7 µM
[32]
  GI50: > 100 µM
  TGI: > 100 µM
[33]
  GI50: 17.8 µM
  TGI: 37.6 µM
[34]
  GI50: 13.3 µM
  TGI: 29.7 µM
[35]
  GI50: 14.9 µM
  TGI: 31.5 µM
[36]
  GI50: 14.3 µM
  TGI: 27.9 µM
[37]
  GI50: 12.9 µM
  TGI: 38.4 µM
[38]
  GI50: 18.7 µM
  TGI: 41.6 µM
[39]
  GI50: 29.2 µM
  TGI: > 100 µM
[40]
  GI50: 19.8 µM
  TGI: 46.4 µM
[41]
  GI50: 15.1 µM
  TGI: 28.3 µM
[42]
  GI50: 16.4 µM
  TGI: 32.1 µM
[43]
  GI50: 14.4 µM
  TGI: 28.2 µM
[44]
  GI50: 17.3 µM
  TGI: 33 µM
[45]
  GI50: 17.2 µM
  TGI: 36.2 µM
[46]
  GI50: > 100 µM
  TGI: > 100 µM
[47]
  GI50: 42.7 µM
  TGI: > 100 µM
[48]
  GI50: 18.6 µM
  TGI: 38.4 µM
[49]
  GI50: 29 µM
  TGI: > 100 µM
[50]
  GI50: 14.8 µM
  TGI: 37 µM
[51]
  GI50: 5.88 µM
  TGI: 94.5 µM
[52]
  GI50: 17.4 µM
  TGI: 32 µM
[53]
  GI50: 6.6 µM
  TGI: 27 µM
[54]
  GI50: 16.4 µM
  TGI: 31.2 µM
[55]
  GI50: 15.2 µM
  TGI: 30.2 µM
[56]
  GI50: 18.7 µM
  TGI: 73.4 µM
[57]
  GI50: 10.3 µM
  TGI: 23.9 µM
[58]
  GI50: 14.6 µM
  TGI: 28.5 µM

## Cc1cc2c(cc1Cl)C(=O)/C(=C/c1ccccc1)O2
[1]
  GI50: 31.3 µM
  TGI: > 100 µM
[59]
  GI50: 20.9 µM
  TGI: 54.8 µM
[2]
  GI50: 16.7 µM
  TGI: 45.3 µM
[3]
  GI50: 17.7 µM
  TGI: 44.6 µM
[4]
  GI50: 15.5 µM
  TGI: 31.1 µM
[5]
  GI50: 17.9 µM
  TGI: 46 µM
[6]
  GI50: 25.5 µM
  TGI: 93.1 µM
[7]
  GI50: 16.5 µM
  TGI: 44.1 µM
[8]
  GI50: 12.8 µM
  TGI: 31.5 µM
[9]
  GI50: 16.6 µM
  TGI: 37.8 µM
[10]
  GI50: 16 µM
  TGI: 35.6 µM
[11]
  GI50: 15.4 µM
  TGI: 62.9 µM
[12]
  GI50: 20 µM
  TGI: 40.5 µM
[13]
  GI50: 26 µM
  TGI: > 100 µM
[14]
  GI50: 9.27 µM
  TGI: 57.7 µM
[15]
  GI50: 13.2 µM
  TGI: 40.5 µM
[16]
  GI50: 22.8 µM
  TGI: 52.8 µM
[17]
  GI50: 21.5 µM
  TGI: 59.6 µM
[18]
  GI50: 16.5 µM
  TGI: 39.4 µM
[19]
  GI50: 26 µM
  TGI: > 100 µM
[20]
  GI50: 25.1 µM
  TGI: 89.2 µM
[21]
  GI50: 23.2 µM
  TGI: > 100 µM
[22]
  GI50: 62.3 µM
  TGI: > 100 µM
[23]
  GI50: 15 µM
  TGI: 33.6 µM
[24]
  GI50: 17.4 µM
  TGI: 31.7 µM
[25]
  GI50: 11.1 µM
  TGI: 70.6 µM
[26]
  GI50: 13.9 µM
  TGI: 26.8 µM
[27]
  GI50: 15.7 µM
  TGI: 38.6 µM
[28]
  GI50: 13.9 µM
  TGI: 33.1 µM
[29]
  GI50: 23.7 µM
  TGI: 76.3 µM
[30]
  GI50: 13 µM
  TGI: 30.7 µM
[31]
  GI50: 1.9 µM
  TGI: 4.19 µM
[32]
  GI50: 49.3 µM
  TGI: > 100 µM
[33]
  GI50: 14 µM
  TGI: 30.9 µM
[34]
  GI50: 16.8 µM
  TGI: 48.3 µM
[35]
  GI50: 29 µM
  TGI: > 100 µM
[36]
  GI50: 23.5 µM
  TGI: 40.6 µM
[37]
  GI50: 22.4 µM
  TGI: > 100 µM
[38]
  GI50: 2.7 µM
  TGI: 57.4 µM
[39]
  GI50: 23.4 µM
  TGI: > 100 µM
[40]
  GI50: 13.1 µM
  TGI: 28.7 µM
[41]
  GI50: 31.6 µM
  TGI: > 100 µM
[42]
  GI50: 15.7 µM
  TGI: 29.1 µM
[43]
  GI50: 15.6 µM
  TGI: 30.9 µM
[44]
  GI50: 15.1 µM
  TGI: 29 µM
[45]
  GI50: 16.8 µM
  TGI: 61.3 µM
[46]
  GI50: 20.6 µM
  TGI: 72 µM
[47]
  GI50: 13.6 µM
  TGI: 35.3 µM
[48]
  GI50: 26.5 µM
  TGI: > 100 µM
[49]
  GI50: 15.9 µM
  TGI: 49.9 µM
[50]
  GI50: 22.3 µM
  TGI: 46.7 µM
[51]
  GI50: 18.7 µM
  TGI: 49.2 µM
[52]
  GI50: 15.4 µM
  TGI: 44.8 µM
[53]
  GI50: 27.6 µM
  TGI: > 100 µM
[54]
  GI50: 14.2 µM
  TGI: 85.4 µM
[55]
  GI50: 16.5 µM
  TGI: 33.1 µM
[56]
  GI50: 29.2 µM
  TGI: > 100 µM
[57]
  GI50: 24.6 µM
  TGI: 51.9 µM
[58]
  GI50: 16.9 µM
  TGI: 33.7 µM
